Results published in patent publication US6291637A (priority 1999, dated 2001).
Where no end group is shown, it is not given here.

Assays:
[1] = tested on: poliovirus IRES-dependent translation (P2CAT RNA); assay type: biochemical
[2] = tested on: cap-dependent translation (CAT RNA); assay type: biochemical
[3] = tested on: cellular translation
[4] = tested on: PV
[5] = tested on: poliovirus 5'-UTR (IRES)-mediated translation; assay type: biochemical

5' GCGCGGGCAGCGCA 3' (chemistry not given here) [BI-RNA]
inhibition of poliovirus IRES-mediated translation of P2CAT RNA [1]: specifically inhibiting translation by internal initiation
inhibition of cap-dependent translation of CAT (pG3CAT/pCAT) RNA [2]: not cap dependent-translation

AALEAKICHQIEYYFGDF [LAP]
effect on cellular translation [3]: does not interfere with cellular translation
entry into human cells [4]: appears to freely diffuse into human cells

B1: La protein (protein, UniProt P05455 1-408, looked up)
Lupus La protein: MAENGDNEKMAALEAKICHQIEYYFGDFNLPRDKFLKEQIKLDEGWVPLEIMIKFNRLNRLTTDFNVIVEALSKSKAELMEISEDKTKIRRSPSKPLPEVTDEYKNDVKNRSVYIKGFPTDATLDDIKEWLEDKGQVLNIQMRRTLHKAFKGSIFVVFDSIESAKKFVETPGQKYKETDLLILFKDDYFAKKNEERKQNKVEAKLRAKQEQEAKQKLEEDAEMKSLEEKIGCLLKFSGDLDDQTCREDLHILFSNHGEIKWIDFVRGAKEGIILFKEKAKEALGKAKDANNGNLQLRNKEVTWEVLEGEVEKEALKKIIEDQQESLNKWKSKGRRFKGKGKGNKAAQPGSGKGKVQFQGKKTKFASDDEHDEHDENGATGPVKRAREETDKEEPASKQQKTENGAGDQ
effect on viral 5'-UTR-mediated translation [5]: Significant stimulation
reversal of I-RNA-mediated inhibition of translation [5]: reversed
